In paper PMC2774768 (Journal of the American Chemical Society, 2009):

Test system: HeLa cells
Assay: Confocal microscopy of peptide uptake and localization
Format: cell-based
Conditions: 1.0 μM peptide, 1 h, serum-free DMEM with 25 mM HEPES pH 7.3, fixed

Substance | Uptake of peptide at 4 °C, fixed cells (confocal)
AcK(5-Fam)C(Acm)KKSRRC(Ger)-NH2 [2a] | substantial uptake of the peptide
AcK(5-Fam)AKKSRRC(Ger)VLL [compound 4] | still able to enter the cells
